Data: US8735575B2, “Phenoxazine derivatives and methods of use thereof” (Washington University, priority 2010, dated 2014)
Like-named read-outs stand apart in the source and are kept apart here. Values belong to the molecule of their own block, whether it stands above or below them.

Experiments:
CAA [1] = target: T1, CAA (Homo sapiens, UniProt P05067); experiment: In situ binding assay on CAA in fixed brain sections of Tg2576 mice; design: species or system mouse (Tg2576); Binding affinity in situ, Bmax on CAA: unit not given here; conditions: for Kd: read-out: Binding affinity in situ, KD (nM) on CAA
physchem = format: physicochemical
Protocol: (§1) The logPoct value is widely used in quantitative structure-activity relationship (QSAR) studies and rational drug design as a measure of molecular hydrophobicity. Hydrophobicity affects drug absorption, bioavailability, hydrophobic drug-receptor interactions, metabolism of molecules, and their toxicity. […] The mixture will be incubated with agitation for 30 min until ionic and non-ionic forms of test compound reach equilibrium. Two layers will be separated by centrifugation. Test compound's concentrations in octanol and water layers will be determined by UV/VIS spectrophotometry. The logPoct value will be calculated from log(concentration in n-octanol fraction/concentration in water fraction). Experiments will be repeated at least 3 times with triplicated samples.

CAA [2] = target: T1, CAA; experiment: Binding affinities for CAA on isolated vessels determined by fluorescent binding; conditions: read-out: Binding affinity (nM) Ki
Protocol: The isolation of cerebral vessels for biochemical analysis will be performed as described (78, 98). […] After the cerebellum is removed, the brain will be homogenized in fivefold excess of vessel buffer. An equal volume of 26% dextran will be added, and the tissue will be centrifuged at 6200×g for 30 min at 4° C. The resulting vessels form a pellet, whereas the parenchymal “vessel-free” material forms a solid, compact disc at the top of the solution. The […] will be resuspended in vessel buffer and passed over a 40-μm nylon mesh to capture vessels. Vessel and parenchymal material will be lysed in 5 M guanidine, 50 mM Tris, pH 8, with protease inhibitor cocktail (Roche) for 3 hr.

CAA [3] = target: T1, CAA; experiment: In situ binding assay on CAA in fixed brain sections of Tg2576 mice; design: species or system mouse (Tg2576)
Text: (§2) Tg2576 mice are a well characterized mouse model of AD and CAA. They develop congophilic Aβ aggregates within neuritic plaques and leptomeningeal and cortical penetrating arteries at 11 months of age (Hsiao et al., 1996; Kawarabayashi et al., 2001; Fryer et al., 2005; Han et al., 2008).
(§3) The Ki values for CAA vs. neuritic plaques will be calculated utilizing the fluorescent amyloid-ligand methoxy-X34 and fluorescent microscopic method. […] Tissue sections (3 sections per reaction) will be then mounted and coverslipped. Photographs of methoxy-X34 binding images will be taken using a Nikon fluorescent microscope. The fluorescent intensity on cerebral amyloid deposits and neuritic plaques will be separately quantified using Image J software. Finally, Ki values will be calculated by plotting % bound vs. log concentrations of competitors followed by non-linear regression using the GraphPad Prism software. The maximum binding will be obtained from the methoxy-X34 intensity in the absence of competitors, while non-specific binding will be detected by the fluorescent intensity in brain tissues incubated without methoxy-X34.
(§4) Tg2576 mice or littermate controls at 15 months of age will be perfused with phosphatebuffered saline (PBS) for 5 min. Brains will be removed, fixed in 4% paraformaldehyde, and preserved in 30% glucose-PBS solution at 4° C. Brains will be coronally sectioned using a microtome and kept in cryoprotectant solution at −20° C. To label amyloid deposits, brain sections (3 sections per reaction) will be permeabilized with PBS containing 0.25% Triton X-100 for 20 min at room temperature, followed by incubation with 1 μM methoxy-X34 in the presence or absence of competitors at various concentrations (10-9-10-6 M). Sections will be subjected to fluorescent microscopy using a Nikon Eclipse C600 microscope. The fluorescent intensity of methoxy-X34 in vessels and neuritic plaques will be quantified using the ImageJ software. The binding affinity (Ki) will be calculated using the GraphPad Prism software.

[4] = normal mice, cited from earlier work
CAA vs. neuritic plaques [5] = experiment: Staining of paraffin-embedded cortical sections of a human AD patient; conditions: autopsied AD patient cortical sections, FIG. 3
Text: as §2

neuritic plaques = neuritic plaques (Homo sapiens, UniProt P05067); experiment: In situ binding assay on neuritic plaques in fixed brain sections of Tg2576 mice; design: species or system mouse (Tg2576); conditions: for Kd: in situ, Tg2576 brain sections, read-out: Binding affinity in situ, KD (nM) on Plaques
Text: as §2, §3, §4

CAA vs. neuritic plaques [6] = experiment: Fluorescent co-staining of fixed brain sections of Tg2576 mice; design: species or system mouse (Tg2576); conditions: aged Tg2576 mice, FIG. 1
Text: as §2

[7] = system: cerebrovascular Aβ deposits; experiment: In vivo live imaging of CAA amyloid deposits through closed cranial window; design: species or system mouse (Tg2576); conditions: 16-month old Tg2576 mice, resorufin 2 μM
Protocol: FIG. 4 depicts in vivo live imaging of CAA amyloid deposits through closed cranial window. A,B. Closed cranial window was prepared on the right parietal bone of 16-month-old Tg2576 mice. Leptomeningeal arterioles (B) were subjected to live imaging using a fluorescent microscope. […] Scale bars: in C-E: 250 μm, in E: 100 μm.
as §1

[8] = cited from earlier work; for Lipophilicity Poct: data from the previous report (Klunk et al. 2002)

- Binding affinity in situ, Bmax on CAA (CAA [1]): 527
- logP (physchem): 2.04
Molecule: O=c1ccc2nc3ccc(OCc4cn(CCF)nn4)cc3oc-2c1 [WC-5-3]

- Binding affinity in situ, Bmax on CAA (CAA [1]): 699
- logP (physchem): 2.97
Molecule: COc1cccc(COc2ccc3nc4ccc(=O)cc-4oc3c2)c1 [WC-5-4]

- binding to neuritic plaques (neuritic plaques; in situ binding assay at a concentration of 160 μM): negligible
- Binding affinity in situ, Bmax on CAA (CAA [1]): 1523/ 885
- logP (physchem): 0.387
Molecule: O=c1ccc2nc3ccc(O)cc3oc-2c1 [Resorufin]
- staining of 3D6-positive arterioles vs. neuritic plaques (CAA vs. neuritic plaques [5]): prominent in 3D6-positive cerebral arterioles but was rarely seen in 3D6-positive neuritic plaques
- staining of CAA vs. neuritic plaques (CAA vs. neuritic plaques [6]): CAA>>>neuritic plaques

- logP (physchem): 2.2
Molecule: O=c1ccc2nc3ccc(OCCBr)cc3oc-2c1 [WC-5-9]

- Binding affinity in situ, Bmax on CAA (CAA [1]): 1304
- logP (physchem): 3.42
Molecule: O=c1ccc2nc3ccc(OCc4ccc(OCCF)cc4)cc3oc-2c1 [WC-5-7]

- logP (physchem): 1.95
Molecule: COc1ccc2nc3ccc(=O)cc-3oc2c1 [Methoxy-resorufin]

- logP (physchem): 2.09
Molecule: CC(=O)OCCOc1ccc2nc3ccc(=O)cc-3oc2c1 [WC-5-8]

- Binding affinity in situ, Bmax on CAA (CAA [1]): 410
- logP (physchem): 2.21
Molecule: O=c1ccc2nc3ccc(OCc4ccccc4)cc3oc-2c1 [Benzyloxy-resorufin]

- Binding affinity in situ, Bmax on CAA (CAA [1]): 135
- logP (physchem): 1.91
Molecule: COc1ccc(COc2ccc3nc4ccc(=O)cc-4oc3c2)cc1 [WC-5-5]

- Lipophilicity Poct (physchem; 30 min): >4.89??
Molecule: O=c1ccc2nc3ccc(OCc4ccc(I)cc4)cc3oc-2c1 [WC-5-31]

- logP (physchem): 2.79
Molecule: CC(=O)Oc1ccc2nc3ccc(=O)cc-3oc2c1 [Resorufin acetate]

Further lines, the molecule ahead of its results:

Molecule: CCOc1ccc2nc3ccc(=O)cc-3oc2c1 [Ethoxy-resorufin]
- Binding affinity in situ, Bmax on CAA (CAA [1]): 107
- Kd (CAA [1]): 247 nM
- logP (physchem): 2.35
- Ki (CAA [2]): 262 nM

Molecule: CCCCCOc1ccc2nc3ccc(=O)cc-3oc2c1 [Pentoxy-resorufin]
- logP (physchem): 2.34

Molecule: phenyl-resorufin
- binding affinity for CAA deposits, in words (CAA [3]): low nanomolar range
- lipophilicity, in words (physchem): moderate lipophilicity

Molecule: [11CH3]Nc1ccc(-c2nc3ccc(O)cc3s2)cc1 [[11C]PIB]
- brain uptake at 2 min after injection ([4]; 2 min): 3.2 % ID/g
- brain level after washout at 60 min ([4]; 60 min): 0.21 % ID/g
- fraction in the brain cleared within 60 min ([4]; within 60 min): 93%

Molecule: CCOc1ccc2nc3ccc(=O)cc-3oc2c1 [ethyl-resorufin]
- binding affinity for CAA deposits, in words (CAA [3]): low nanomolar range
- lipophilicity, in words (physchem): moderate lipophilicity

Molecule: C#COc1ccc2nc3ccc(=O)cc-3oc2c1 [WC-5-1]
- Kd (neuritic plaques): > 4000 nM
- Binding affinity in situ, Bmax on CAA (CAA [1]): 485
- Kd (CAA [1]): 173 nM
- Lipophilicity Poct (physchem): 2.407

Molecule: methoxyphenyl-resorufin
- binding affinity for CAA deposits, in words (CAA [3]): low nanomolar range
- lipophilicity, in words (physchem): moderate lipophilicity

Molecule: COc1cc(/C=C/c2ccc(O)cc2)ccc1/C=C/c1ccc(O)cc1 [Methoxy-X04, reference compound]
- fluorescent labeling in live mice, topical application through cranial window [7]: present in both cerebral arteries and parenchymal neuritic plaques
- Lipophilicity Poct [8]: ^b2.6

Molecule: [11CH3]Oc1ccc(C=Cc2ccc(C=Cc3ccc(O)c(C(=O)O)c3)cc2)cc1C(=O)O [Methoxy-X34]
- Lipophilicity Poct [8]: ^b0.19

Molecule: [11CH3]Oc1cc(C=Cc2ccc(O)cc2)ccc1C=Cc1ccc(O)cc1 [[11C]methoxy-X04]
- logPoct ([8]; cited study (96)): 2.6

Molecule: O=c1ccc2nc3ccc(OCCF)cc3oc-2c1 [WC-5-2]
- Kd (neuritic plaques): > 4000 nM
- Binding affinity in situ, Bmax on CAA (CAA [1]): 869
- Kd (CAA [1]): 235 nM
- Lipophilicity Poct (physchem): 2.774
